Measurements reported in patent US9434711B2 (Janssen Pharmaceutica, NV, priority 2007, dated 2016).
Where two headings read alike, the source gives them in different places.

Target: canine TRPM8 (Canis lupus familiaris, UniProt Q1A7N1)
Experiment: In Vitro Canine TRPM8 Functional Assay (Ca2+ fluorescence, icilin activation)
Assay type: cell-based
Details: for inhibition at 0.5 µM: compound at 0.5 μM, read-out: % Inh @ 0.5; for IC50: HEK293 cells stably expressing canine TRPM8, icilin activation, eight-point dose-response, read-out: IC50
Summary of the method: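 Eight-point dose-response curves, each point averaging quadruplicate wells, gave EC50 or IC50. Canine TRPM8-expressing HEK293 cells, dye-loaded (Calcium 3), were pre-exposed 5 min to compound, then challenged with icilin at roughly EC80; intracellular Ca2+ read by FLIPR or FDSS fluorescence.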

[1] = canine TRPM8, icilin activation
[2] = compound at 0.2 μM, canine TRPM8, icilin activation, read-out: % Inh @ 0.2

canine TRPM8, sequence (Q1A7N1 1-1104): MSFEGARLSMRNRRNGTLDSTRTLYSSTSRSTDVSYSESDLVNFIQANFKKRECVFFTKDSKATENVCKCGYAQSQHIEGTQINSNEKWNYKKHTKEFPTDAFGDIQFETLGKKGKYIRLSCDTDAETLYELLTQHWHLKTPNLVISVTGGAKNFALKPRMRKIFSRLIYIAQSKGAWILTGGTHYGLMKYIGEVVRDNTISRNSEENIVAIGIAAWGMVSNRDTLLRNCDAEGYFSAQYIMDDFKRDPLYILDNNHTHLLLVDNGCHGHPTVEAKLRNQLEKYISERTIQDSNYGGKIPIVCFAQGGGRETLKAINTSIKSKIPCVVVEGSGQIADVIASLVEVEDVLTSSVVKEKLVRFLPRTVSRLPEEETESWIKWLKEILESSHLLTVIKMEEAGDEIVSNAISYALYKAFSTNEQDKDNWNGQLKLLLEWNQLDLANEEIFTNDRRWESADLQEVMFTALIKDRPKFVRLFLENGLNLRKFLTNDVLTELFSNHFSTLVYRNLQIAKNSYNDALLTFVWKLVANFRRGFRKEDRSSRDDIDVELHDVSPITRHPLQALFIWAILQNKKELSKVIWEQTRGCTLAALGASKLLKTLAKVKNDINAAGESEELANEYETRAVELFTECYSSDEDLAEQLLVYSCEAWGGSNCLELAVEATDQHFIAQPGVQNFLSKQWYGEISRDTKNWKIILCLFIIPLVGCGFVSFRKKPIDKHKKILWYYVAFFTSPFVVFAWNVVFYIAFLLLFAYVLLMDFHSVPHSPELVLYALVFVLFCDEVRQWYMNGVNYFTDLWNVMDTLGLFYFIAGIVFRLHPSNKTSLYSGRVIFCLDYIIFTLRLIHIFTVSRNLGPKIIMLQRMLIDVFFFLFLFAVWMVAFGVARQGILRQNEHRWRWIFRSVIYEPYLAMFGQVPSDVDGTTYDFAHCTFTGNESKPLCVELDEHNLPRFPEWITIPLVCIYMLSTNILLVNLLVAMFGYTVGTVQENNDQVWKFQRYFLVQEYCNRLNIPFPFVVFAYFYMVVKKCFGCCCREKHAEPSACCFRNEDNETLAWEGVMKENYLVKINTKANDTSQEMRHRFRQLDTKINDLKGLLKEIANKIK

SMILES	inhibition at 0.5 µM [1] [%]	IC50 [µM]	inhibition at 0.2 µM [2] [%]	inhibition at 0.2 µM (read-out: % Inh @ 0.2 (μM)) [%]
O=S(=O)(c1ccccc1)N(C[C@@H](O)CO)c1sc2ccccc2c1Br [Compound 235, (R)—N-(3-Bromo-benzo[b]thiophen-2-yl)-N-(2,3-dihydroxy-propyl)-benzenesulfonamide]	51	–	–	–
O=C1CCCN1CCN(c1sc2ccccc2c1Br)S(=O)(=O)c1ccccc1 [Compound 236, N-(3-Bromo-benzo[b]thiophen-2-yl)-N-[2-(2-oxo-pyrrolidin-1-yl)-ethyl]-benzenesulfonamide]	68	–	–	–
O=S(=O)(c1ccccc1)N(CCN1CCOCC1)c1sc2ccccc2c1Br [Compound 237, N-(3-Bromo-benzo[b]thiophen-2-yl)-N-(2-morpholin-4-yl-ethyl)-benzenesulfonamide]	92	0.0248	87	–
CN(C)CCN(c1sc2ccccc2c1Br)S(=O)(=O)c1ccccc1 [Compound 238, N-(3-Bromo-benzo[b]thiophen-2-yl)-N-(2-dimethylamino-ethyl)-benzenesulfonamide]	96	0.093	–	–
CS(=O)(=O)CCN(c1sc2ccccc2c1Br)S(=O)(=O)c1ccccc1 [Compound 239, N-(3-Bromo-benzo[b]thiophen-2-yl)-N-(2-methanesulfonyl-ethyl)-benzenesulfonamide]	96	0.092	–	–
O=C1NCCN1CCN(c1sc2ccccc2c1Br)S(=O)(=O)c1ccccc1 [Compound 240, N-(3-Bromo-benzo[b]thiophen-2-yl)-N-[2-(2-oxo-imidazolidin-1-yl)-ethyl]-benzenesulfonamide]	43	–	–	–
CN1CCC[C@H]1CN(c1sc2ccccc2c1Br)S(=O)(=O)c1ccccc1 [Compound 241, (S)—N-(3-Bromo-benzo[b]thiophen-2-yl)-N-(1-methyl-pyrrolidin-2-ylmethyl)-benzenesulfonamide]	97	0.106	–	–
O=S(=O)(c1ccccc1)N(CC(F)F)c1sc2ccccc2c1Br [Compound 242, N-(3-Bromo-benzo[b]thiophen-2-yl)-N-(2,2-difluoro-ethyl)-benzenesulfonamide]	–	0.0382	95	–
COC(=O)CN(c1sc2ccccc2c1Br)S(=O)(=O)c1ccccc1 [Compound 243, N-(3-Bromo-benzo[b]thiophen-2-yl)-N-(carbomethoxymethyl)-benzenesulfonamide]	–	0.038	98	–
COC(=O)[C@@H](C)CN(c1sc2ccccc2c1Br)S(=O)(=O)c1ccccc1 [Compound 244, N-(3-Bromo-benzo[b]thiophen-2-yl)-N-[2(S)-methyl-2-carbomethoxy-ethyl]-benzenesulfonamide]	–	–	100	–
COC(=O)[C@H](C)CN(c1sc2ccccc2c1Br)S(=O)(=O)c1ccccc1 [Compound 245, N-(3-Bromo-benzo[b]thiophen-2-yl)-N-[2(R)-methyl-2-carbomethoxy-ethyl]-benzenesulfonamide]	–	–	102	–
O=S(=O)(c1ccccc1)N(CCCc1ccccc1)c1sc2ccccc2c1Br [Compound 246, N-(3-Bromo-benzo[b]thiophen-2-yl)-N-(3-phenyl-propyl)-benzenesulfonamide]	–	0.0088	102	–
CCN(c1sc2ccccc2c1Br)S(=O)(=O)c1ccccc1 [Compound 247, N-(3-Bromo-benzo[b]thiophen-2-yl)-N-(ethyl)-benzenesulfonamide]	–	0.0255	99	–
CCCCCCN(c1sc2ccccc2c1Br)S(=O)(=O)c1ccccc1 [Compound 248, N-(3-Bromo-benzo[b]thiophen-2-yl)-N-(hexyl)-benzenesulfonamide]	–	0.0083	98	–
O=S(=O)(c1ccccc1)N(CC12CC3CC(CC(C3)C1)C2)c1sc2ccccc2c1Br [Compound 249, N-(Adamant-1-ylmethyl)-N-(3-bromo-benzo[b]thiophen-2-yl)-benzenesulfonamide]	–	0.0009	97	–
O=S(=O)(c1ccccc1)N(CCC(F)(F)F)c1sc2ccccc2c1Br [Compound 250, N-(3-Bromo-benzo[b]thiophen-2-yl)-N-(3,3,3-trifluoro-propyl)-benzenesulfonamide]	–	0.0127	102	–
CC#CCCN(c1sc2ccccc2c1Br)S(=O)(=O)c1ccccc1 [Compound 251, N-(3-Bromo-benzo[b]thiophen-2-yl)-N-(pent-3-ynyl)-benzenesulfonamide]	–	0.0387	95	–
COCCN(c1sc2ccccc2c1Br)S(=O)(=O)c1ccccc1 [Compound 252, N-(3-Bromo-benzo[b]thiophen-2-yl)-N-(2-methoxy-ethyl)-benzenesulfonamide]	–	0.0171	102	–
CC(=O)CCCN(c1sc2ccccc2c1Br)S(=O)(=O)c1ccccc1 [Compound 253, N-(3-Bromo-benzo[b]thiophen-2-yl)-N-(4-oxo-pentyl)-benzenesulfonamide]	–	0.0273	101	–

SMILES	inhibition at 0.5 µM [1] [%]	IC50 [µM]	inhibition at 0.2 µM [2] [%]	inhibition at 0.2 µM (read-out: % Inh @ 0.2 (μM)) [%]
COP(=O)(CCN(c1sc2ccccc2c1Br)S(=O)(=O)c1ccccc1)OC [Compound 254, N-(3-Bromo-benzo[b]thiophen-2-yl)-N-(dimethoxyphosphinoyl-ethyl)-benzenesulfonamide]	–	0.125	–	58
O=S(=O)(c1ccccc1)N(CC1CC1)c1sc2ccccc2c1Br [Compound 255, N-(3-Bromo-benzo[b]thiophen-2-yl)-N-(cyclopropylmethyl)-benzenesulfonamide]	–	0.086	89	–
O=S(=O)(c1ccccc1)N(CCN1CCCCC1)c1sc2ccccc2c1Br [Compound 256, N-(3-Bromo-benzo[b]thiophen-2-yl)-N-(2-piperidin-1-yl-ethyl)-benzenesulfonamide]	–	0.03	87	–
O=C1CCC(=O)N1CCN(c1sc2ccccc2c1Br)S(=O)(=O)c1ccccc1 [Compound 257, N-(3-Bromo-benzo[b]thiophen-2-yl)-N-[2-(2,5-dioxo-pyrrolidin-1-yl)-ethyl]-benzenesulfonamide]	–	–	62	–
O=C1CC[C@H](CN(c2sc3ccccc3c2Br)S(=O)(=O)c2ccccc2)N1 [Compound 258, (R)—N-(3-Bromo-benzo[b]thiophen-2-yl)-N-(5-oxo-pyrrolidin-2-ylmethyl)-benzenesulfonamide]	–	–	25	–
O=C1CC[C@@H](CN(c2sc3ccccc3c2Br)S(=O)(=O)c2ccccc2)N1 [Compound 259, (S)—N-(3-Bromo-benzo[b]thiophen-2-yl)-N-(5-oxo-pyrrolidin-2-ylmethyl)-benzenesulfonamide]	–	–	24	–
CSCCN(c1sc2ccccc2c1Br)S(=O)(=O)c1ccccc1 [Compound 260, N-(3-Bromo-benzo[b]thiophen-2-yl)-N-(2-methylsulfanyl-ethyl)-benzenesulfonamide]	–	0.05	86	–
CCCCN(c1sc2ccccc2c1Br)S(=O)(=O)CC [Compound 261, N-(3-Bromo-benzo[b]thiophen-2-yl)-N-(butyl)-ethanesulfonamide]	–	0.0126	97	–
CCS(=O)(=O)N(CC1CC1)c1sc2ccccc2c1Br [Compound 262, N-(3-Bromo-benzo[b]thiophen-2-yl)-N-(cyclopropylmethyl)-ethanesulfonamide]	–	0.067	94	–
CCS(=O)(=O)N(CC(F)F)c1sc2ccccc2c1Br [Compound 263, N-(3-Bromo-benzo[b]thiophen-2-yl)-N-(2,2-difluoro-ethyl)-ethanesulfonamide]	–	0.203	52	–
CCS(=O)(=O)N(CCOC(C)(C)C)c1sc2ccccc2c1Br [Compound 264, N-(3-Bromo-benzo[b]thiophen-2-yl)-N-(2-tert-butoxy-ethyl)-ethanesulfonamide]	–	0.0341	99	–
CCCCN(c1sc2ccccc2c1Br)S(=O)(=O)N(C)C [Compound 265, N-(3-Bromo-benzo[b]thiophen-2-yl)-N-(butyl)-N′,N′-dimethylsulfamide]	–	0.022	90	–
CN(C)S(=O)(=O)N(CC1CC1)c1sc2ccccc2c1Br [Compound 266, N-(3-Bromo-benzo[b]thiophen-2-yl)-N-(cyclopropylmethyl)-N′,N′-dimethylsulfamide]	–	0.039	86	–
CN(C)S(=O)(=O)N(CCOC(C)(C)C)c1sc2ccccc2c1Br [Compound 267, N-(3-Bromo-benzo[b]thiophen-2-yl)-N-(2-tert-butoxy-ethyl)-N′,N′-dimethylsulfamide]	–	0.01	96	–
CN(C)S(=O)(=O)N(CC(F)F)c1sc2ccccc2c1Br [Compound 268, N-(3-Bromo-benzo[b]thiophen-2-yl)-N-(2,2-difluoro-ethyl)-N′,N′-dimethylsulfamide]	–	–	67	–
CN(C)S(=O)(=O)N(CCC(F)(F)F)c1sc2ccccc2c1Br [Compound 269, N-(3-Bromo-benzo[b]thiophen-2-yl)-N-(3,3,3-trifluoropropyl)-N′,N′-dimethylsulfamide]	–	0.016	94	–
NCCN(c1sc2ccccc2c1Cl)S(=O)(=O)c1ccccc1 [Compound 270, N-(2-Amino-ethyl)-N-(3-chloro-benzo[b]thiophen-2-yl)-benzenesulfonamide]	75	0.338	–	–
COCCN(c1sc2ccccc2c1Br)S(=O)(=O)c1ccc(C(=O)O)cc1 [Compound 274, N-(3-Bromo-benzo[b]thiophen-2-yl)-N-(2-methoxyethyl)-4-carboxy-benzenesulfonamide]	–	0.036	94	–
CC(C)(C)OCCN(c1sc2ccccc2c1Br)S(=O)(=O)c1ccc(C(=O)O)cc1 [Compound 275, N-(3-Bromo-benzo[b]thiophen-2-yl)-N-(2-tert-butoxy-ethyl)-4-carboxy-benzenesulfonamide]	–	0.003	97	–
